The text below walks through data of ChEMBL document CHEMBL5724914, “Linking interpersonal differences in gut microbiota composition and drug biotransformation activity” (2024).

For series [1] the following is noted: human gut metagenome, 24 h, 2 µM.
For series [2] the following is noted: human gut metagenome, 24 h, 2 µM. This is another data set of the same source.
Series [3] in a line: The drug is tested on Z-008 corresponding to metagenome with ENA study accession number: PRJEB37062 and ENA sample accession number: ERS12561808 for biotransformation under anaerobic condition. The drug concentrations were measured over 9 timepoints collected between 0 and 24 hours of incubation by liquid-chromatography-coupled mass spectrometry (LC–MS). The following applies: 2 µM.

Series [4] can be described thus: The drug is tested on Z-029 corresponding to rat gut metagenome with ENA study accession number: PRJEB37062 and ENA sample accession number: ERS12561828 for biotransformation under anaerobic condition. The drug concentrations were measured over 9 timepoints collected between 0 and 24 hours of incubation by liquid-chromatography-coupled mass spectrometry (LC–MS). The following applies: 2 µM.

The conditions of series [5]: human gut metagenome, 24 h, 2 µM. This is another data set of the same source.
For series [6] the following is noted: human gut metagenome, 24 h, 2 µM. This is another data set of the same source.
Series [7] is described as follows: The drug is tested on WLS-039 corresponding to human gut metagenome with ENA study accession number: PRJEB37062 and ENA sample accession number: ERS12561746 for biotransformation under anaerobic condition. The drug concentrations were measured over 9 timepoints collected between 0 and 24 hours of incubation by liquid-chromatography-coupled mass spectrometry (LC–MS). The note with it: 2 µM.

Series [8] is described as follows: The drug is tested on WLS-006 corresponding to human gut metagenome with ENA study accession number: PRJEB37062 and ENA sample accession number: ERS12561741 for biotransformation under anaerobic condition. The drug concentrations were measured over 9 timepoints collected between 0 and 24 hours of incubation by liquid-chromatography-coupled mass spectrometry (LC–MS). The following applies: 2 µM.

Series [9] is described as follows: The drug is tested on Z-019 corresponding to rat gut metagenome with ENA study accession number: PRJEB37062 and ENA sample accession number: ERS12561818 for biotransformation under anaerobic condition. The drug concentrations were measured over 9 timepoints collected between 0 and 24 hours of incubation by liquid-chromatography-coupled mass spectrometry (LC–MS). The note with it: 2 µM.

The conditions of series [10]: human gut metagenome, 24 h, 2 µM. This is another data set of the same source.
Series [11] is described as follows: The drug is tested on WLS-038 corresponding to human gut metagenome with ENA study accession number: PRJEB37062 and ENA sample accession number: ERS12561745 for biotransformation under anaerobic condition. The drug concentrations were measured over 9 timepoints collected between 0 and 24 hours of incubation by liquid-chromatography-coupled mass spectrometry (LC–MS). The note with it: 2 µM.

Series [12] can be described thus: The drug is tested on Z-028 corresponding to mouse gut metagenome with ENA study accession number: PRJEB37062 and ENA sample accession number: ERS12561827 for biotransformation under anaerobic condition. The drug concentrations were measured over 9 timepoints collected between 0 and 24 hours of incubation by liquid-chromatography-coupled mass spectrometry (LC–MS). The following applies: 2 µM.

A short description of series [13]: The drug is tested on WLS-073 corresponding to human gut metagenome with ENA study accession number: PRJEB37062 and ENA sample accession number: ERS12561749 for biotransformation under anaerobic condition. The drug concentrations were measured over 9 timepoints collected between 0 and 24 hours of incubation by liquid-chromatography-coupled mass spectrometry (LC–MS). The following applies: 2 µM.

The conditions of series [14]: human gut metagenome, 24 h, 2 µM. The source holds these as a separate data set.
Series [15] can be described thus: The drug is tested on WLS-069 corresponding to human gut metagenome with ENA study accession number: PRJEB37062 and ENA sample accession number: ERS12561748 for biotransformation under anaerobic condition. The drug concentrations were measured over 9 timepoints collected between 0 and 24 hours of incubation by liquid-chromatography-coupled mass spectrometry (LC–MS). The following applies: 2 µM.

The nature of series [16]: The drug is tested on WLS-098 corresponding to human gut metagenome with ENA study accession number: PRJEB37062 and ENA sample accession number: ERS12561754 for biotransformation under anaerobic condition. The drug concentrations were measured over 9 timepoints collected between 0 and 24 hours of incubation by liquid-chromatography-coupled mass spectrometry (LC–MS). The following applies: 2 µM.

The nature of series [17]: The drug is tested on Z-020 corresponding to rabbit gut metagenome with ENA study accession number: PRJEB37062 and ENA sample accession number: ERS12561819 for biotransformation under anaerobic condition. The drug concentrations were measured over 9 timepoints collected between 0 and 24 hours of incubation by liquid-chromatography-coupled mass spectrometry (LC–MS). The note with it: 2 µM.

A short description of series [18]: The drug is tested on Z-018 corresponding to pig gut metagenome with ENA study accession number: PRJEB37062 and ENA sample accession number: ERS12561817 for biotransformation under anaerobic condition. The drug concentrations were measured over 9 timepoints collected between 0 and 24 hours of incubation by liquid-chromatography-coupled mass spectrometry (LC–MS). The following applies: 2 µM.

Series [19] in a line: The drug is tested on WLS-310 corresponding to human gut metagenome with ENA study accession number: PRJEB37062 and ENA sample accession number: ERS12561785 for biotransformation under anaerobic condition. The drug concentrations were measured over 9 timepoints collected between 0 and 24 hours of incubation by liquid-chromatography-coupled mass spectrometry (LC–MS). The following applies: 2 µM.

Series [20] can be described thus: The drug is tested on Z-022 corresponding to mouse gut metagenome with ENA study accession number: PRJEB37062 and ENA sample accession number: ERS12561821 for biotransformation under anaerobic condition. The drug concentrations were measured over 9 timepoints collected between 0 and 24 hours of incubation by liquid-chromatography-coupled mass spectrometry (LC–MS). The following applies: 2 µM.
Also: call rule not given here.

`CC(C)(C)NCC(O)c1cc(Cl)c(N)c(Cl)c1` (stereo not given) [CLENBUTEROL]: the “Bacterial Biotransformation” value in series [1], in [2], in series [3], in series [4], in series [5] and in series [6] was “Compound NOT metabolized” throughout. The “Bacterial Biotransformation” value in series [7], in [8], in [9], in series [10], in series [11] and in [12] was “Compound NOT metabolized” each time. Moreover, the “Bacterial Biotransformation” value in series [13], in series [14], in series [15], in [16], in series [17] and in series [18] was “Compound NOT metabolized” throughout. Moreover, the “Bacterial Biotransformation” value in [19] and in series [20] was “Compound NOT metabolized” in each case.

For the compound `C[N+]12CCC(CC1)C(OC(=O)C(O)(c1ccccc1)c1ccccc1)C2.[Br-]` (stereo not given) [CLIDINIUM BROMIDE], the “Bacterial Biotransformation” value in [1] was “Compound NOT metabolized”; in [2], “Compound NOT metabolized”; in [3] it was “Compound NOT metabolized”; in series [4], “Compound NOT metabolized”; in [5], “Compound NOT metabolized”; in series [6], “Compound metabolized”. Besides, the “Bacterial Biotransformation” value is reported as “Compound metabolized” in series [7]; “Compound NOT metabolized” in series [8]; “Compound NOT metabolized” in [9]; “Compound NOT metabolized” in series [10]; “Compound NOT metabolized” in series [11]; “Compound NOT metabolized” in series [12]. The “Bacterial Biotransformation” value is given as “Compound NOT metabolized” in series [13]; “Compound NOT metabolized” in series [14]; “Compound NOT metabolized” in series [15]; “Compound NOT metabolized” in series [16]; “Compound NOT metabolized” in [17]; “Compound metabolized” in [18]. For the same compound, the “Bacterial Biotransformation” value in series [19] and in [20] was “Compound NOT metabolized” throughout.

Take `Clc1cccc(Cl)c1N=C1NCCN1` [CLONIDINE]: the “Bacterial Biotransformation” value in series [1] is on record as “Compound NOT metabolized”; in [2] it was “Compound metabolized”; in series [3], “Compound NOT metabolized”; in [4], “Compound NOT metabolized”; in [5], “Compound metabolized”; in series [6], “Compound NOT metabolized”. Moreover, the “Bacterial Biotransformation” value in series [7] is recorded as “Compound NOT metabolized”; in series [8], “Compound metabolized”; in [9] it was “Compound NOT metabolized”; in series [10] it was “Compound NOT metabolized”; in series [11], “Compound NOT metabolized”; in series [12] it was “Compound NOT metabolized”. The “Bacterial Biotransformation” value is listed as “Compound NOT metabolized” in [13]; “Compound NOT metabolized” in [14]; “Compound metabolized” in [15]; “Compound metabolized” in series [16]; “Compound metabolized” in [17]; “Compound metabolized” in [18]. In addition, the “Bacterial Biotransformation” value in [19] was “Compound metabolized”; in series [20], “Compound NOT metabolized”.

As to `COC(=O)[C@H](c1ccccc1Cl)N1CCc2sccc2C1.O=S(=O)(O)O` [CLOPIDOGREL BISULFATE], the “Bacterial Biotransformation” value in series [1] is given as “Compound metabolized”; in [2], “Compound metabolized”; in series [3], “Compound metabolized”; in [4], “Compound NOT metabolized”; in [5] it was “Compound metabolized”; in series [6], “Compound metabolized”. In addition, the “Bacterial Biotransformation” value in series [7] is reported as “Compound NOT metabolized”; in series [8], “Compound metabolized”; in series [9], “Compound NOT metabolized”; in series [10] it was “Compound metabolized”; in [11], “Compound metabolized”; in [12], “Compound NOT metabolized”. The “Bacterial Biotransformation” value in series [13], in [14], in series [15], in series [16], in series [17] and in [18] was “Compound metabolized” throughout. For the same compound, the “Bacterial Biotransformation” value in series [19] and in series [20] was “Compound metabolized” each time.

For the compound `O=P1(N(CCCl)CCCl)NCCCO1` (stereo not given) [CYCLOPHOSPHAMIDE ANHYDROUS], the “Bacterial Biotransformation” value is given as “Compound NOT metabolized” in series [1]; “Compound metabolized” in [2]; “Compound NOT metabolized” in [3]; “Compound NOT metabolized” in [4]; “Compound metabolized” in series [5]; “Compound NOT metabolized” in series [6]. In addition, the “Bacterial Biotransformation” value in [7] is given as “Compound NOT metabolized”; in [8], “Compound NOT metabolized”; in series [9] it was “Compound NOT metabolized”; in [10], “Compound metabolized”; in series [11], “Compound NOT metabolized”; in series [12], “Compound NOT metabolized”. For the same compound, the “Bacterial Biotransformation” value in [13] is “Compound NOT metabolized”; in series [14], “Compound metabolized”; in [15] it was “Compound metabolized”; in series [16] it was “Compound metabolized”; in [17] it was “Compound NOT metabolized”; in series [18], “Compound NOT metabolized”. Moreover, the “Bacterial Biotransformation” value in series [19] is listed as “Compound metabolized”; in series [20] it was “Compound NOT metabolized”.
